Key:
Type in all cases: in vivo
[1] = tested on: yellow fever mosquito (Aedes aegypti); experiment: whole plant or invertebrate; conditions: 48 h, larval mortality visually assessed after 2 days, read-out: mortality in comparison with untreated controls
Method: Example B1: Action on Yellow Fever Mosquito (Aedes aegypti)
For evaluating control of yellow fever mosquito (Aedes aegypti) the test unit consisted of 96-well-microtiter plates containing 200 μl of tap water per well and 5-15 freshly hatched A. aegypti larvae.
The active compounds were formulated using a solution containing 75% (v/v) water and 25% (v/v) DMSO. Different concentrations of formulated compounds or mixtures were sprayed onto the insect diet at 2.5 μl, using a custom built micro atomizer, at two replications.
After application, microtiter plates were incubated at 28+1° C., 80+5% RH for 2 days. Larval mortality was then visually assessed.

[2] = tested on: Orchid thrips (Dichromothrips corbetti); experiment: Action on orchid thrips (Dichromothrips corbetti), floral-immersion technique; conditions: adult thrips, mortality 72 hours after treatment, read-out: mortality in comparison with untreated controls
Method: Example B2: Action on Orchid thrips (Dichromothrips corbetti)
Dichromothrips corbetti adults used for bioassay were obtained from a colony maintained continuously under laboratory conditions. For testing purposes, the test compound is diluted in a 1:1 mixture of acetone:water (vol:vol), plus Kinetic® HV at a rate of 0.01% v/v.
Thrips potency of each compound was evaluated by using a floral-immersion technique. All petals of individual, intact orchid flowers were dipped into treatment solution and allowed to dry in Petri dishes. Treated petals were placed into individual re-sealable plastic along with about […]. All test arenas were held under continuous light and a temperature of about 28° C. for duration of the assay. After 3 days, the numbers of live thrips were counted on each petal. The percent mortality was recorded 72 hours after treatment.

[3] = tested on: boll weevil (Anthonomus grandis); experiment: Action on boll weevil (Anthonomus grandis), eggs on insect diet in microtiter plates; conditions: 120 h, egg and larval mortality after 5 days, read-out: mortality in comparison with untreated controls
Method: Example B3: Action on Boll Weevil (Anthonomus grandis)
For evaluating control of boll weevil (Anthonomus grandis) the test unit consisted of 96-well-microtiter plates containing an insect diet and 5-10 A. grandis eggs.
The compounds were formulated using a solution containing 75% v/v water and 25% v/v DMSO. Different concentrations of formulated compounds were sprayed onto the insect diet at 5 μl, using a custom built micro atomizer, at two replications.
After application, microtiter plates were incubated at about 25±1° C. and about 75±5% relative humidity for 5 days. Egg and larval mortality was then visually assessed.

[4] = tested on: Silverleaf Whitefly (Bemisia argentifoli) (Adults); experiment: Action on silverleaf whitefly (Bemisia argentifoli) adults on sprayed cotton plants; conditions: Bemisia argentifolii, 72 h, mortality 3 days after treatment, read-out: mortality in comparison with untreated controls
Method: Example B4: Action on Silverleaf Whitefly (Bemisia argentifoli) (Adults)
(§1) The active compounds were formulated by a Tecan liquid handler in 100% cyclohexanone as a 10,000 ppm solution supplied in tubes. The 10,000 ppm solution was serially diluted in 100% cyclohexanone to make interim solutions. These served as stock solutions for which final dilutions were made by the Tecan in 50% acetone:50% water (v/v) into 5 or 10 ml glass vials. A nonionic surfactant (Kinetic®) was included in the solution at a volume of 0.01% (v/v). The vials were then inserted into an automated electrostatic sprayer equipped with an atomizing nozzle for application to plants/insects.
Cotton plants at the cotyledon stage (one plant per pot) were sprayed by an automated electrostatic plant sprayer equipped with an atomizing spray nozzle. The plants were dried in the sprayer fume hood and then removed from the sprayer. Each pot was pla-ced into a plastic cup and about 10 to 12 whitefly adults (approximately 3-5 days old) were introduced. The insects were collected using an aspirator and a nontoxic Tygon® tubing connected to a barrier pipette tip. The tip, containing the collected insects, was then gently inserted into the soil containing the treated plant, allowing insects to crawl out of the tip to reach the foliage for feeding. Cups were covered with a reusable screened lid. Test plants were maintained in a growth room at about 25° C. and about 20-40% relative humidity for 3 days, avoiding direct exposure to fluorescent light (24 hour photoperiod) to prevent trapping of heat inside the cup. Mortality was assessed 3 days after treatment, compared to untreated control plants.

[5] = tested on: tobacco budworm (Heliothis virescens); experiment: Action on tobacco budworm (Heliothis virescens), eggs on insect diet in microtiter plates; conditions: 120 h, egg and larval mortality after 5 days, read-out: mortality in comparison with untreated controls
Method: Example B5: Action on Tobacco Budworm (Heliothis virescens)
For evaluating control of tobacco budworm (Heliothis virescens) the test unit consisted of 96-well-microtiter plates containing an insect diet and 15-25 H. virescens eggs.
The compounds were formulated using a solution containing 75% v/v water and 25% v/v DMSO. Different concentrations of formulated compounds were sprayed onto the insect diet at 10 μl, using a custom built micro atomizer, at two replications.
After application, microtiter plates were incubated at about 28±1° C. and about 80±5% relative humidity for 5 days. Egg and larval mortality was then visually assessed.

[6] = tested on: Diamond Back Moth (Plutella xylostella); experiment: Action on diamond back moth (Plutella xylostella), cabbage leaf dip; conditions: foliar, 3rd instar larvae on dipped cabbage leaves, mortality 72 hours after treatment, read-out: mortality in comparison with untreated controls
Method: Example B6: Action on Diamond Back Moth (Plutella xylostella)
The active compound is dissolved at the desired concentration in a mixture of 1:1 (vol:vol) distilled water:acetone. Surfactant (Kinetic® HV) is added at a rate of 0.01% (vol/vol). The test solution is prepared at the day of use.
Leaves of cabbage were dipped in test solution and air-dried. Treated leaves were placed in petri dishes lined with moist filter paper and inoculated with ten 3rd instar larvae. Mortality was recorded 72 hours after treatment. Feeding damages were also recorded using a scale of 0-100%.

[7] = tested on: Southern Armyworm (Spodoptera eridania), 2nd Instar Larvae; experiment: Action on southern armyworm (Spodoptera eridania), 2nd instar larvae on sprayed lima bean plants; conditions: 96 h, 2nd instar larvae on lima bean plants, 4 days after treatment, read-out: mortality in comparison with untreated controls
Method: Example B7: Action on Southern Armyworm (Spodoptera eridania), 2nd Instar Larvae
as §1, with “into 10” for “into 5”, “or 20” for “or 10”
Lima bean plants (variety Sieva) were grown 2 plants to a pot and selected for treatment at the 1st true leaf stage. Test solutions were sprayed onto the foliage by an automated electrostatic plant sprayer equipped with an atomizing spray nozzle. The plants were dried in the sprayer fume hood and then removed from the sprayer. Each pot was placed into perforated plastic bags with a zip closure. About 10 to 11 armyworm larvae were placed into the bag and the bags zipped closed. Test plants were maintained in a growth room at about 25° C. and about 20-40% relative humidity for 4 days, avoiding direct exposure to fluorescent light (24 hour photoperiod) to prevent trapping of heat inside the bags. Mortality and reduced feeding were assessed 4 days after treatment, compared to untreated control plants.

CC(C)c1ccccc1NC(=S)N/N=C/c1ccc2c(COc3ccc(OC(F)(F)F)cc3)nn(C)c2c1 [Example C-3, 1-(2-isopropylphenyl)-3-[(E)-[1-methyl-3-[[4-(trifluoromethoxy)phenoxy]methyl]indazol-6-yl]methyleneamino]thiourea]
≥ 75%: mortality at 800 ppm [1] | mortality at 500 ppm [2] | mortality at 800 ppm [3] | mortality at 300 ppm [4] | mortality at 800 ppm [5] | mortality at 500 ppm [6] | mortality at 300 ppm [7]

CO[C@@H]1[C@@H](OC)[C@H](C)O[C@@H](OC(=O)Nc2ccc3c(C(=O)Nc4ccc(OC(F)(F)F)cc4)nn(C)c3c2)[C@@H]1OC [Example C-6, [(2S,3R,4R,5S,6S)-3,4,5-trimethoxy-6-methyl-tetrahydropyran-2-yl] N-[1-methyl-3-[[4-(trifluoromethoxy)phenyl]carbamoyl]indazol-6-yl]carbamate]
≥ 75%: mortality at 800 ppm [1] | mortality at 500 ppm [2] | mortality at 800 ppm [3] | mortality at 300 ppm [4] | mortality at 800 ppm [5] | mortality at 500 ppm [6] | mortality at 300 ppm [7]

CC(C)c1ccccc1/N=C1\SCC(=O)N1/N=C/c1ccc2c(C(C)Oc3ccc(OC(F)(F)F)cc3)nn(C)c2c1 (stereo not drawn) [Example C-14, (2Z)-2-(2-isopropylphenyl)imino-3-[(E)-[1-methyl-3-[1-[4-(trifluoromethoxy)phenoxy]ethyl]indazol-6-yl]methyleneamino]thiazolidin-4-one]
≥ 75%: mortality at 800 ppm [1] | mortality at 500 ppm [2] | mortality at 300 ppm [4] | mortality at 800 ppm [5] | mortality at 500 ppm [6] | mortality at 300 ppm [7]

CC(C)c1ccccc1N1C(=O)CS/C1=N\N=C\c1ccc2c(C(C)Oc3ccc(OC(F)(F)F)cc3)nn(C)c2c1 (stereo not drawn) [Example C-13, (2Z)-3-(2-isopropylphenyl)-2-[(E)-[1-methyl-3-[1-[4-(trifluoromethoxy)phenoxy]ethyl]indazol-6-yl]methylenehydrazono]thiazolidin-4-one]
≥ 75%: mortality at 800 ppm [1] | mortality at 500 ppm [2] | mortality at 300 ppm [4] | mortality at 800 ppm [5] | mortality at 500 ppm [6] | mortality at 300 ppm [7]

CC(C)c1ccccc1NC(=S)N/N=C/c1ccc2c(C(C)Oc3ccc(OC(F)(F)F)cc3)nn(C)c2c1 (stereo not drawn) [Example C-12, 1-(2-isopropylphenyl)-3-[(E)-[1-methyl-3-[1-[4-(trifluoromethoxy)phenoxy]ethyl]indazol-6-yl]methyleneamino]thiourea]
≥ 75%: mortality at 800 ppm [1] | mortality at 500 ppm [2] | mortality at 800 ppm [3] | mortality at 300 ppm [4] | mortality at 800 ppm [5] | mortality at 500 ppm [6] | mortality at 300 ppm [7]

From patent US11160280B2, “Pesticial compounds” (BASF SE, priority 2017, dated 2021)
